Measured values as given in patent publication US20170050045A1, “PHOTODYNAMIC THERAPY USING IN SITU NONLINEAR PHOTON UPCONVERSION OF NIR LIGHT BY BIOLOGICAL MEDIUM” (The Research Foundation for The State University Of New York, priority 2014, published 2017).

Tests used:
HeLa cells [1] = experiment: PDT phototoxicity in cultured HeLa cells, CARS/FWM/TPA vs TPA excitation (calcein AM / propidium iodide staining); type: cell-based; conditions: 90 μM, 90 min incubation, average of four series
From the text: Materials and Methods. Optical setup. The experimental setup used for the present nonlinear optical excitation of PDT utilized a custom made laser scanning microscopy system with two excitation NIR laser sources. A picosecond Nd:YVO4 laser (picoTRAIN IC-10000/532-4000, HighQ Laser) with pulse width ˜5 ps and a repetition rate of 76 MHz was used as the source for the Stokes wave ωs at the fundamental output of 1064 nm as well as for synchronous pumping of a tunable optical parametric oscillator (OPO, Levante Emerald, APE) by using its 532 second harmonic output with a pulse width of ˜4 ps. […] When the beating frequency ωp-ωs is tuned to be resonant with a vibrational mode of a selected molecular bond, the CARS signal together with its nonresonant electronic FWM background signal is detected at the anti-Stokes frequency of ωas=2ωp−ωs. Using our instrument setup, a sample can be excited and the imaged in the CARS/FWM mode in the vibrational frequency range of 900-3300 cm^−1 and simultaneously at 670-990 nm in the TPEF (two-photon excited fluorescence) or/and in the SHG mode. […] Thus, this experimental setup enables concurrent operation of the system in the PDT excitation mode as well as in the imaging mode (CARS/FWM/fluorescence) which is highly suitable for PDT process monitoring. […]

HeLa cells [2] = experiment: PDT phototoxicity in HeLa cells grown on collagen substrates, SHG excitation at 818 nm (detached and PI positive cells counted); type: cell-based
Description: To verify the efficiency of the different nonlinear-optical conversion mechanisms for PDT excitation, cell cultured samples were used in different lay-outs permitting separation of the relative contribution of one specific nonlinear process. All experiments were made in a Petri dish through the bottom optical glass window in an inverted microscopy configuration. When cells were grown directly on the optical glass window, the pump and Stokes waves were synchronized with a zero delay and the beams were focused into the cell culture treated with the photosensitizer, CARS/FWM signals were generated by the natural intercellular biomolecules of proteins or lipids. In this case, the CARS/FWM conversion was also supplemented by the TPA process directly in the photosensitizer and a combination of CARS/FWM/TPA was obtained (see diagram 1 in FIG. 3a). To separate the TPA contribution, a pulse delay of ˜5 ps between the pump and the Stokes waves was introduced which disabled the CARS/FWM process. Therefore, with the pulse delay t, TPA of photosensitizer produced the dominant PDT effect (see diagram 2 in FIG. 3a). We used another lay-out in which cells were grown on a thin layer of polymerized collagen gel (ordered collagen structures). When the pump and Stokes laser beams were focused in collagen and had zero delay, SHG/FWM/SFG (sum frequency generation) nonlinear interactions occurred in the collagen layer (see diagram 3 in FIG. 3a). To selectively look at the SHG contribution, a pulse delay was introduced which disabled the FWM and SFG processes. The second harmonic signal generated by the collagen structure propagated to reach the cells treated with the photosensitizer, and efficiently absorbed by it to excite PDT (see diagram 4 in FIG. 3a). The dose of laser radiation delivered to the sample was estimated to be ˜60 J/cm^2 at 812.6 or 818.8 nm; ˜30 J/cm^2 at 1064 nm per scan, for CARS/FWM in proteins/lipids cellular environmental medium; and ˜60 J/cm^2 for SHG in polymerized collagen gels.
Cell culture, drug treatment and PDT design. The process of PDT was modeled on the cultured HeLa cells. FIG. 3b diagrammatically illustrates the PDT procedure. HeLa cells were grown in Advanced DMEM (Life Technologies), supplemented with 2.5% fetal calf serum (FBS) (Sigma, St. Louis, Mo.), 1% glutamax (Life Technologies), 1% Antibiotic Antimycotic Solution (Sigma) at 37° C. in a humidified atmosphere containing 5% CO2. Prior to the incorporation of the photosensitizer and PDT experiments, cells were placed into glass-bottom dishes (MatTek, Ashland, Mass.). In the experiments involving SHG, the glass-bottom dishes were coated either with monomeric collagen (Sigma) or with collagen gels polymerized on the glass window. A stock solution of Chlorin-e6 was prepared in DMSO. The PDT process in the cultured cells was initiated by nonlinear optical excitation of the Chlorin-e6 photosensitizer, which was diluted to a final concentration of 90 μM in Advanced DMEM containing 15% FBS and 0.005% Tween 80. Cells were incubated with the drug for ninety minutes, thoroughly washed to remove unincorporated drug and subsequently used for optical exposure for PDT treatment.
During the laser irradiation, cells were maintained at 37° C. and 5% CO2 in a Live-Cell incubator (Pathology Devices, Westminster, Md.) mounted on the microscope stage. Following the laser irradiation, the cells were incubated for 4 hours in a fresh regular medium at 37° C. […]

C=Cc1c(C)c2cc3nc(c(CC(=O)O)c4[nH]c(cc5nc(cc1[nH]2)C(C)=C5CC)c(C)c4C(=O)O)[C@@H](CCC(=O)O)[C@@H]3C [Chlorin e6]
necrotic cells (PI positive cells) (HeLa cells [1]; CARS/FWM/TPA mode (zero pulse delay), 818 nm pump + 1064 nm Stokes, 70 scans, ~6300 J/cm^2): 40%
necrotic cells (PI positive cells) (HeLa cells [1]; TPA mode (delayed pulses), same number of scans (70)): 20%
difference in phototoxicity between polymerized and monomeric collagen groups (HeLa cells [2]; 50 scans, 818 nm, 3000 J/cm^2): tenfold
detachment from the substrate, or positive PI staining of cells (HeLa cells [2]; cells on fibrillar (polymerized) collagen, 50 scans by 818 nm pulsed laser, 3000 J/cm^2, 90 μM): up to 50%
detached and PI positive cells (HeLa cells [2]; cells on fibrillar collagen substrates, 75 scans, 818 nm, ~4500/cm^2, 90 μM): ~70%
cytotoxicity, by counting of the detached and PI positive cells (HeLa cells [2]; cells on monomeric collagen, 50 scans by 818 nm pulsed laser, 3000 J/cm^2, 90 μM): less than 5%
cells either detached or displayed PI stain (HeLa cells [2]; cells on monomeric collagen, 75 scans, 818 nm, ~4500/cm^2, 90 μM): ~35%
